{
  "source": "patent US7781454B2",
  "about": "(priority 2006, dated 2010)",
  "key": {"[1]": {"target": "HIV-1 RT enzyme (wild-type) (Human immunodeficiency virus type 1 group M subtype B, UniProt P04585)", "experiment": "ECL assay for inhibition of HIV reverse transcriptase (WT)", "assay_type": "biochemical", "method": "(§1) 100 μL reaction mixtures were initiated with a combination of primer-template substrate ([…]) and dNTPs (0.6 μM dNTPs, 1.25 μM BrdUTP). The heterodimeric nucleic acid substrate was generated by annealing the DNA primer pD500 (described in Shaw-Reid et al., J. Biol. Chem., 278: 2777-2780; obtained from Integrated DNA Technologies) to t500, a 500 nucleotide RNA template created by in vitro transcription (see Shaw-Reid et al., J. Biol. Chem., 278: 2777-2780). After 1 hour incubation at 37° C., reactions were quenched by 10 μL of 1 N NaOH. Microtiter plates were incubated for an additional 30 minutes at room temperature and then neutralized with 10 μL of 1 N HCl. A mixture of detection buffer containing ruthenylated anti-BrdU antibody and streptavidin coated magnetic beads were added to the plate and incubated at room temperature for 1.5 hours prior to quantification via electrochemiluminescence instrument."}, "[2]": {"target": "T1, mutant HIV reverse transcriptase (K103N mutation) (Human immunodeficiency virus type 1 group M subtype B, UniProt P04585, K690N)", "T1 construct": "against mutant HIV reverse transcriptase; made in house", "experiment": "ECL assay for inhibition of mutant HIV reverse transcriptase (K103N)", "assay_type": "biochemical", "method": "as §1\n(§2) Analogous assays were conducted substituting mutant HIV strains to determine the in vitro inhibition of compounds of the present invention against mutant HIV reverse transcriptase. In one strain the reverse transcriptase has the Y181C mutation and in the other strain the reverse transcriptase has the K103N mutation. The mutations were generated with the QUIKCHANGE site-directed mutagenesis kit (Stratagene)."}, "[3]": {"target": "T2, mutant HIV reverse transcriptase (Y181C mutation) (Human immunodeficiency virus type 1 group M subtype B, UniProt P04585, Y768C)", "T2 construct": "against mutant HIV reverse transcriptase; made in house", "experiment": "ECL assay for inhibition of mutant HIV reverse transcriptase (Y181C)", "assay_type": "biochemical", "method": "as §1, §2"}, "wild type HIV-1": {"tested_on": "wild type HIV-1", "experiment": "Spread assay: inhibition of acute HIV-1 infection of T-lymphoid cells (WT)", "assay_type": "cell-based", "conditions": "Human immunodeficiency virus 1, T-lymphoid; wild-type strain; 10% FBS; read-out: Spread (WT) CIC95", "method": "(§3) Assays for the inhibition of acute HIV-1 infection of T-lymphoid cells (alternatively referred to herein as the “spread assay”) were conducted in accordance with Vacca, J. P. et al., Proc. Natl. Acad. Sci. USA 1994, 91: 4096. The assays tested for inhibition of wild type HIV-1 and of HIV strains containing the Y181C or K103N mutation. […] The compounds of Examples 1 to 4 had CIC95 values of less than 10 micromolar in the assay employing the K103N mutant strain. […] Table C also reports the CIC95 values of the compounds of Examples 1-7, 9-13 and 15-29 obtained in the assays employing the Y181C mutant strain and the K103N mutant strain."}, "[4]": {"tested_on": "HIV strain containing the K103N mutation", "experiment": "Spread assay: inhibition of HIV replication (K103N mutant strain)", "assay_type": "cell-based", "conditions": "Human immunodeficiency virus 1, read-out: Spread (K103N) CIC95", "method": "as §3"}, "[5]": {"tested_on": "HIV strain containing the Y181C mutation", "experiment": "Spread assay: inhibition of HIV replication (Y181C mutant strain)", "assay_type": "cell-based", "conditions": "Human immunodeficiency virus 1, read-out: Spread (Y181C) CIC95", "method": "as §3"}, "[6]": {"conditions": "K103N mutant RT, read-out: ECL Assay (K103N) IC50"}, "[7]": {"conditions": "Y181C mutant RT, read-out: ECL Assay (Y181C) IC50"}},
  "note": "Counter-ions that a name gives are not always drawn. Like-named read-outs stand apart in the source and are kept apart here.",
  "data": [
    {"smiles": "N#Cc1cc(Cl)cc(Oc2c(Cl)ccc3c2ncn3Cc2n[nH]c3nc(N)ccc23)c1", "note": "[Example 10, 3-({1-[(6-amino-1H-pyrazolo[3,4-b]pyridin-3-yl)methyl]-5-chloro-1H-benzimidazol-4-yl}oxy)-5-chlorobenzonitrile bis(trifluoroacetate)]", "values": [
      {"measurement": "IC50", "setting": "[1]", "result": 0.0015, "unit": "µM"},
      {"measurement": "IC50", "setting": "[2]", "result": 0.013, "unit": "µM"},
      {"measurement": "IC50", "setting": "[3]", "result": 0.013, "unit": "µM"},
      {"measurement": "IC95", "setting": "wild type HIV-1", "result": 0.021, "unit": "µM"},
      {"measurement": "IC95", "setting": "[4]", "result": 0.085, "unit": "µM"},
      {"measurement": "IC95", "setting": "[5]", "result": 0.468, "unit": "µM"}
    ]},
    {"smiles": "N#Cc1cc(Cl)cc(Oc2c(Cl)ccc3c2nnn3CC(=O)Nc2ccccc2Cl)c1", "note": "[Example 12, 2-[5-chloro-4-(3-chloro-5-cyanophenoxy)-1H-1,2,3-benzotriazol-1-yl]-N-(2-chlorophenyl)acetamide]", "values": [
      {"measurement": "IC50", "setting": "[1]", "result": 0.00045, "unit": "µM"},
      {"measurement": "IC50", "setting": "[2]; [6]", "result": 0.00094, "unit": "µM"},
      {"measurement": "IC50", "setting": "[3]; [7]", "result": 0.00089, "unit": "µM"},
      {"measurement": "IC95", "setting": "wild type HIV-1", "result": 0.023, "unit": "µM"},
      {"measurement": "IC95", "setting": "[4]", "result": 0.041, "unit": "µM"},
      {"measurement": "IC95", "setting": "[5]", "result": 0.137, "unit": "µM"}
    ]},
    {"smiles": "N#Cc1cc(Cl)cc(Oc2c(Cl)ccc3c2nnn3CC(=O)Nc2ccncc2C(F)(F)F)c1", "note": "[Example 13, 2-[5-chloro-4-(3-chloro-5-cyanophenoxy)-1H-1,2,3-benzotriazol-1-yl]-N-[3-(trifluoromethyl)pyridin-4-yl]acetamide]", "values": [
      {"measurement": "IC50", "setting": "[1]", "result": 0.001, "unit": "µM"},
      {"measurement": "IC50", "setting": "[2]; [6]", "result": 0.003, "unit": "µM"},
      {"measurement": "IC50", "setting": "[3]; [7]", "result": 0.0024, "unit": "µM"},
      {"measurement": "IC95", "setting": "wild type HIV-1", "result": 0.045, "unit": "µM"},
      {"measurement": "IC95", "setting": "[4]", "result": 0.151, "unit": "µM"},
      {"measurement": "IC95", "setting": "[5]", "result": 0.382, "unit": "µM"}
    ]},
    {"smiles": "NCc1cc(Cl)cc(Oc2c(Cl)ccc3c2nnn3Cc2n[nH]c3ncccc23)c1", "note": "[Example 17, (3-chloro-5-{[5-chloro-1-(1H-pyrazolo[3,4-b]pyridin-3-ylmethyl)-1H-1,2,3-benzotriazol-4-yl]oxy}phenyl)methanaminium trifluoroacetate]", "values": [
      {"measurement": "IC50", "setting": "[1]", "result": 0.038, "unit": "µM"},
      {"measurement": "IC50", "setting": "[2]", "result": 0.079, "unit": "µM"},
      {"measurement": "IC50", "setting": "[3]", "result": 0.074, "unit": "µM"},
      {"measurement": "IC95", "setting": "wild type HIV-1", "result": 0.06, "unit": "µM"},
      {"measurement": "IC95", "setting": "[4]", "result": 0.262, "unit": "µM"},
      {"measurement": "IC95", "setting": "[5]", "result": "> 0.833", "unit": "µM"}
    ]},
    {"smiles": "O=Cc1cc(Cl)cc(Oc2c(Cl)ccc3c2nnn3Cc2n[nH]c3ncccc23)c1", "note": "[Example 18, 3-chloro-5-{[5-chloro-1-(1H-pyrazolo[3,4-b]pyridin-3-ylmethyl)-1H-1,2,3-benzotriazol-4-yl]oxy}benzaldehyde]", "values": [
      {"measurement": "IC50", "setting": "[1]", "result": 0.0021, "unit": "µM"},
      {"measurement": "IC50", "setting": "[2]; [6]", "result": 0.0026, "unit": "µM"},
      {"measurement": "IC50", "setting": "[3]; [7]", "result": 0.0037, "unit": "µM"},
      {"measurement": "IC95", "setting": "wild type HIV-1", "result": 0.055, "unit": "µM"},
      {"measurement": "IC95", "setting": "[4]", "result": 0.154, "unit": "µM"},
      {"measurement": "IC95", "setting": "[5]", "result": 0.825, "unit": "µM"}
    ]},
    {"smiles": "N#Cc1cc(Cl)cc(Oc2c(Cl)ccc3c2nnn3Cc2n[nH]c3ncccc23)c1Cl", "note": "[Example 19, 2,5-dichloro-3-{[5-chloro-1-(1H-pyrazolo[3,4-b]pyridin-3-ylmethyl)-1H-1,2,3-benzotriazol-4-yl]oxy}benzonitrile]", "values": [
      {"measurement": "IC50", "setting": "[1]", "result": 0.00057, "unit": "µM"},
      {"measurement": "IC50", "setting": "[2]; [6]", "result": 0.00093, "unit": "µM"},
      {"measurement": "IC50", "setting": "[3]; [7]", "result": 0.00077, "unit": "µM"},
      {"measurement": "IC95", "setting": "wild type HIV-1", "result": 0.007, "unit": "µM"},
      {"measurement": "IC95", "setting": "[4]", "result": 0.015, "unit": "µM"},
      {"measurement": "IC95", "setting": "[5]", "result": 0.027, "unit": "µM"}
    ]}
  ]
}
